The text below walks through data of patent US12631620B2, “Methods of generating organoids for high throughput screening of drugs” (Yissum Research Development Company of the Hebrew …, priority 2019, dated 2026).

Several values for one entry are separate records, joined by “and”; a condition that tells them apart may be missing. Identical values can stand only once.

For data set [1], the system named is HepG2/C3A organoids. In words: Real-time oxygen uptake toxicity (TC50, time to onset, lowest exposure level) in differentiated HepG2/C3A organoids. The format is cell-based, human. The conditions noted are these: for TC50: oxygen uptake; for lowest exposure level (LEL): horizontal asymptote, onset of damage at infinite time. How it is done:
A suspension of HepG2/C3A cells and CPOx-50-RuP beads (Colibri Photonics, Germany) were suspended in 2.5 mg/ml rat tail collagen type I (Corning, USA) at a cell density of 7×10^5 cells/μl. A volume of 1.1 μl of the gel-imbedded mixture was injected into each microwell and left to form spontaneously until their metabolic activity stabilized around day 4.
Fifty-micrometer-diameter polystyrene microbeads were loaded with ruthenium-phenanthroline-based phosphorescence dye (CPOx-50-RuP). […] Oxygen acts as a quencher, leading to a decrease in decay time and signal intensity with increasing concentration. The present inventors chose to measure decay time, rather than signal intensity, as it is not sensitive to changes in probe concentration or excitation intensity over the course of the experiment. The signal was measured using the OPAL system (Colibri Photonics, Germany) that comprises of a control module, 532 nm LED excitation source, and a photomultiplier (PMT) detector mounted on the ocular of an IX81 Olympus microscope (Olympus, Japan). A filter cube with 531/40 (Ex), 555, 607/70 (Em) was inserted in the optical light path during measurements. To accurately measure decay time, the present inventors chose phase modulation in which sinusoidal amplitude-modulated light is shifted in phase due to oxygen quenching. To overcome the superposition of in-phase background fluorescence that alters the phase of the detected signal, the present inventors used a novel 53.5 and 31.3 kHz two-frequency phase modulation that allowed to screen out the interference [Schmalzlin E., et al., 2005. Biophysical journal, 89: 1339-1345; Papkovsky, D. B. et al., 2004. Methods in enzymology, 381, 715-735; Ast, C., et al., 2012. Sensors (Basel), 12: 7015-7032; Engelhard, S., et al., 2006. Analytical and bioanalytical chemistry, 384: 1107-1112; Prill, D. et al., 2016, Archives of toxicology, 90: 1181-1191]. Measurements were carried out by averaging five consecutive 4-s exposures. Measurements were taken every 15 minutes. Under similar conditions, 28 days of measurement of organoids was done with no apparent phototoxicity, signal drift, or relevant loss of signal intensity (Schmalzlin E., et al., 2005. Biophysical journal, 89: 1339-1345). Assessment of Cellular Toxicity and Time to Onset
Organoids were exposed to different concentrations of compounds dissolved in culture medium. Cell viability was determined by oxygen uptake following 24 hours of exposure unless otherwise noted. TC50 concentrations were determined using MATLAB by sigmoidal curve fitting (Wenner, M. M. et al., 2011, J Appl Physiol (1985), 111: 1703-1709; Prentice, R. L. et al., 1976, Biometrics, 32: 761-768). Time to onset was analyzed by MATLAB based on LPF and trend assessment.
To find the asymptotic concentration for which damage occurs only at infinite exposure time, the present inventors used a previously developed model for accumulative drug exposure (El-Kareh et al., 2000. Neoplasia, 2: 325-338; Currie, G. M. 2018. J Nucl Med Technol, DOI: 10.2967/jnmt.117.199588). The model is based on the steady-state dynamics of flux accumulation, using a linear first-order approximation of the cell membrane. The flux behavior is described by
where J(C) is the concentration dependent flux, Jmin is the minimal flux that will cause an effect, t is time of exposure and |τ is a drug-cell specific constant accounting reaction dynamics (Gowrishankar et al., 2003. Proceedings of the National Academy of Sciences of the United States of America, 100: 3203-3208; Kotnik T. et al., 2000. IEEE Trans Biomed Eng, 47: 1074-1081). In the present case, t is the Time to Onset (TTO) of damage creating a bi-asymptotic behavior. This adapted model is used to describe lowest exposure level (LEL) under first order, steady state assumptions, as
Real-time oxygen measurements were performed optically using on-chip lifetime-based luminescence quenching (LBLQ). […]

Data set [2] relates to E6/E7^LOW human hepatocytes. In words: Steatosis and phospholipidosis, HCS LipidTOX detection kit, hepatocyte cultures. The format is cell-based. As for the experimental part:
Quantification of Apoptotic index was performed using DeadEnd™ fluorometric TUNEL System (Promega) according to manufacturer directions. Briefly, cells were treated with TC20 concentrations of compounds dissolved in culture medium for 24 hours, and subsequently fixed in 4% Paraformaldehyde (PFA). Cells were then permeabilized and exposed to fluorescein-12-dUTP and terminal deoxynucleotidyl transferase (TdT). The reaction was subsequently stopped and the cells counterstained with 1 μg/mL Hoechst 33258. Apoptotic cells were positive for green fluorescence in the nucleus. Percentage apoptosis was defined as the number of TUNEL positive nuclei normalized to Hoechst 33258 positive nuclei. Quantification of Steatosis was performed using HCS LipidTOX™ Phospholipidosis and Steatosis Detection Kit (ThermoFisher). Briefly, differentiated cells were incubated with different concentrations of compounds dissolved in culture medium and 1× Phospholipidosis Detection Reagent for 48 hours, subsequently fixed in 4% PFA. Cells were then stained with 1× LipidTOX™ for 20 minutes and counterstained with 1 μg/mL Hoechst 33258. Staining intensity was normalized to number of Hoechst 33258 positive nuclei. Quantification of Bile Secretion was performed using 5(6)-carboxy-2′,7′-dichlorofluorescein diacetate (CDFDA) staining. Briefly, differentiated cells were incubated with different concentrations of compounds dissolved in culture medium for 24 hours. Cells were then treated with 10 μg/mL CDFDA and 1 μg/mL Hoechst 33342 for 30 minutes. Incubation medium was removed and cultures washed with ice-cold PBS containing calcium and magnesium. Staining intensity was normalized to number of Hoechst 33342 positive nuclei. Analysis excluded Intracellular CDFDA staining based on intensity and phase images. All quantifications were made in comparison to cells treated with melatonin as negative control.
Quantification of Apoptotic index was performed using DeadEnd™ fluorometric TUNEL System (Promega) according to manufacturer directions. Briefly, cells were treated with TC20 concentrations of compounds dissolved in culture medium for 24 hours, and subsequently fixed in 4% Paraformaldehyde (PFA). Cell were then permeabilized and exposed to fluorescein-12-dUTP and terminal deoxynucleotidyl transferase (TdT). The reaction was subsequently stopped and the cells counterstained with 1 μg/mL Hoechst 33258. Apoptotic cells were positive for green fluorescence in the nucleus. […] Quantification of Steatosis was performed using HCS LipidTOX™ Phospholipidosis and Steatosis Detection Kit (ThermoFisher). […] Quantification of Bile Secretion was performed using 5(6)-carboxy-2′,7′-dichlorofluorescein diacetate (CDFDA) staining. […] All quantifications were made in comparison to cells treated with melatonin as negative control.

The test system of data set [3] is HepG2/C3A organoids. Description: Neutral lipid and phospholipid staining of HepG2/C3A organoids on chip. It counts as cell-based, human. The settings on record: p<0.001, n=9.
The next data set relates to E6/E7^LOW hepatocytes. The conditions noted are these: flux balance analysis, below threshold of cellular damage; Valproate sustained, Stavudine transient. As for the experimental part:
According to some embodiments of the invention there is a sensor-integrated liver on chip array in which oxygen is monitored using two-frequency phase modulation of tissue-embedded phosphorescent microprobes, while glucose, lactate and temperature are measured in real time using microfluidic electrochemical sensors. Such a microphysiological platform permits the calculation of dynamic changes in metabolic fluxes around central carbon metabolism, producing a unique metabolic fingerprint of the liver's response to stimuli.

For data set [4] the following is noted: cited from earlier work.

On to `CCCC(CCC)C(=O)O` [Valproate, 2-n-propylpentanoic acid], for which the TC50 in the data set on HepG2/C3A organoids [1] (at 24 hours) is 27 mM; in the data set on HepG2/C3A organoids [1] (at 42 hours), 14 mM and 14 ± 2 mM. The “Time to onset (TTO) of response” value with HepG2/C3A organoids [1] (dose-dependent range over concentrations tested) was 6 to 36 h. The “lowest exposure level (LEL)” value in the data set with HepG2/C3A organoids [1] (± standard error) and in the data set with HepG2/C3A organoids [1] (± standard error of curve fit) was 280 ± 97 µM in each case. In addition, the “TC50 plateau value as a function of time” value in the data set with HepG2/C3A organoids [1] (plateau of TC50 over time) is reported as “around 5 mM”. For the same molecule, the direct mitochondrial damage result with HepG2/C3A organoids [1] (sub-toxic levels) is recorded as “no indication of direct mitochondrial damage”. The phospholipidosis entry in data set [2] is “Evidence of phospholipidosis was seen”. In addition, in data set [2] (p<0.001, n=4), the neutral lipids entry was “strong and significant increase”. The “increase in the amount of intracellular lipids” value with HepG2/C3A organoids [3] amounted to 4 fold. The increase in lipogenesis with E6/E7^LOW hepatocytes is 15%. The “patients with evidence of steatosis” value in data set [4] (abdominal ultrasound) is recorded as 61%. The “patients with elevated liver enzymes” value in data set [4] (patients on therapy) was “Over 40%”.
